For 20 compounds, T/C results are on record in PubChem BioAssay AID248 (DTP/NCI, 2004).

Values joined by “and” are separate entries in the source; they are usually repeats but may differ in a detail not shown here. Equal values may be shown once. Inconclusive results and toxic doses are left out.

The assay concerns L1210 leukemia ip in BDF1 mice, survival T/C. Put plainly: NCI In Vivo Anticancer Drug Screen. Data for tumor model L1210 Leukemia (intraperitoneal) in B6D2F1 (BDF1) mice. The following applies: endpoint: mean survival time, higher = longer survival. The gist of the method: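 Antitumor effect is assessed in tumor-bearing animals. Survival in the compound arm is compared with a vehicle-dosed control arm and expressed as their quotient.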

The mark [1] stands for this setting: dose: 100.0 mg/kg/injection, schedule: Q01DX009 (ip), vehicle: Klucel (hydroxypropylcellulose) (HPC).
The mark [2] stands for this setting: dose: 100.0 mg/kg/injection, schedule: Q04DX002 (ip), vehicle: Klucel (hydroxypropylcellulose) (HPC).
The mark [3] stands for this setting: dose: 100.0 mg/kg/injection, schedule: Q04DX003 (ip), vehicle: Klucel (hydroxypropylcellulose) (HPC).
Where [4] appears, read: dose: 200.0 mg/kg/injection, schedule: Q01DX009 (ip), vehicle: Klucel (hydroxypropylcellulose) (HPC).
[5] abbreviates: dose: 200.0 mg/kg/injection, schedule: Q04DX002 (ip), vehicle: Klucel (hydroxypropylcellulose) (HPC).
Setting [6] is: dose: 200.0 mg/kg/injection, schedule: Q04DX003 (ip), vehicle: Klucel (hydroxypropylcellulose) (HPC).
The mark [7] stands for this setting: dose: 400.0 mg/kg/injection, schedule: Q01DX009 (ip), vehicle: Klucel (hydroxypropylcellulose) (HPC).
Where [8] appears, read: dose: 100.0 mg/kg/injection, schedule: Q04DX002 (ip), vehicle: saline with Tween-80.
The mark [9] stands for this setting: dose: 200.0 mg/kg/injection, schedule: Q04DX002 (ip), vehicle: saline with Tween-80.
The mark [10] stands for this setting: dose: 50.0 mg/kg/injection, schedule: Q04DX003 (ip), vehicle: Klucel (hydroxypropylcellulose) (HPC).
Where [11] appears, read: dose: 100.0 mg/kg/injection, schedule: Q01DX009 (ip), vehicle: saline with Tween-80.
The mark [12] stands for this setting: dose: 100.0 mg/kg/injection, schedule: Q04DX003 (ip), vehicle: saline with Tween-80.
Where [13] appears, read: dose: 200.0 mg/kg/injection, schedule: Q04DX003 (ip), vehicle: saline with Tween-80.
The mark [14] stands for this setting: dose: 100.0 mg/kg/injection, schedule: Q01DX001 (ip), vehicle: saline.
[15] abbreviates: dose: 200.0 mg/kg/injection, schedule: Q01DX009 (ip), vehicle: saline with Tween-80.
The mark [16] stands for this setting: dose: 400.0 mg/kg/injection, schedule: Q04DX003 (ip), vehicle: saline with Tween-80.

In the case of `NC(=O)C1CCN(C(=O)Nc2cc(C(F)(F)F)ccc2Cl)CC1`, the T/C (dose: 100.0 mg/kg/injection, schedule: Q01DX001 (ip), vehicle: Klucel (hydroxypropylcellulose) (HPC)) is 93 % of control; the T/C under setting [1] was 98 % of control and 102 % of control; the T/C under setting [2] is 103 % of control and 107 % of control; the T/C under setting [3] was 111 % of control; the T/C (dose: 200.0 mg/kg/injection, schedule: Q01DX001 (ip), vehicle: Klucel (hydroxypropylcellulose) (HPC)) is 86 % of control; the T/C under setting [4] is 93 % of control and 98 % of control. Further, the T/C runs as follows: under setting [5], 100 % of control and 105 % of control; under setting [6], 103 % of control; (dose: 400.0 mg/kg/injection, schedule: Q01DX001 (ip), vehicle: Klucel (hydroxypropylcellulose) (HPC)) 91 % of control; under setting [7], 95 % of control; (dose: 400.0 mg/kg/injection, schedule: Q04DX002 (ip), vehicle: Klucel (hydroxypropylcellulose) (HPC)) 100 % of control; (dose: 400.0 mg/kg/injection, schedule: Q04DX003 (ip), vehicle: Klucel (hydroxypropylcellulose) (HPC)) 107 % of control.

On to `O=C(O)c1c(Cl)[nH]c2ccccc12`, for which the T/C (dose: 50.0 mg/kg/injection, schedule: Q04DX002 (ip), vehicle: saline with Tween-80) was 101 % of control; the T/C under setting [8] was 97 % of control; the T/C under setting [9] was 89 % of control.

For the compound `COc1ccc(-c2sc(/N=C/c3cccs3)c(C#N)c2C)cc1OC`, the T/C is, setting by setting: under setting [1], 94 % of control; under setting [4], 95 % of control; under setting [7], 97 % of control.

As to `O=C(O)CCNc1ccc(Cl)cc1[N+](=O)[O-]`, the T/C was 97 % of control under setting [2] and 120 % of control under setting [5].

For `O=C(O)c1ccc(Br)o1`, the T/C by setting is: under setting [8], 104 % of control; under setting [9], 97 % of control; (dose: 400.0 mg/kg/injection, schedule: Q04DX002 (ip), vehicle: saline with Tween-80) 95 % of control.

For the compound `[N-]=[N+]=C1C(C(=O)c2ccccc2)=NN=C1c1ccccc1`, the T/C was 97 % of control under setting [10], 104 % of control under setting [3] and 108 % of control under setting [6].

Consider `Clc1ccc(/C=N/Nc2nc3ccccc3s2)cc1`, for which the T/C was 97 % of control (dose: 222.0 mg/kg/injection, schedule: Q01DX Z (ip), vehicle: methylcellulose (MC)); 101 % of control (dose: 333.0 mg/kg/injection, schedule: Q01DX Z (ip), vehicle: methylcellulose (MC)); 91 % of control (dose: 500.0 mg/kg/injection, schedule: Q01DX Z (ip), vehicle: methylcellulose (MC)).

In the case of `C=C(Br)C(C)N` (centres undefined), the T/C (dose: 100.0 mg/kg/injection, schedule: Q01DX009 (ip), vehicle: saline) was 104 % of control.

Turning to `C=C(Cl)c1c(C)cc(C)cc1C`, the T/C by setting is: (dose: 25.0 mg/kg/injection, schedule: Q01DX009 (ip), vehicle: saline with Tween-80) 98 % of control; (dose: 50.0 mg/kg/injection, schedule: Q01DX009 (ip), vehicle: saline with Tween-80) 104 % of control; under setting [11], 98 % of control and 88 % of control; under setting [12], 97 % of control; under setting [13], 86 % of control.

As for `O=[N+]([O-])c1cc2cnn(CO)c2cc1[N+](=O)[O-]`, the T/C is 95 % of control under setting [14]; 95 % of control (dose: 200.0 mg/kg/injection, schedule: Q01DX001 (ip), vehicle: saline); 100 % of control (dose: 400.0 mg/kg/injection, schedule: Q01DX001 (ip), vehicle: saline).

As for `Nc1nc(Cl)c(C=O)c(Cl)n1`, the T/C is 97 % of control (dose: 25.0 mg/kg/injection, schedule: Q01DX001 (ip), vehicle: carboxymethylcellulose (CMC)); 97 % of control (dose: 50.0 mg/kg/injection, schedule: Q01DX001 (ip), vehicle: carboxymethylcellulose (CMC)); 94 % of control (dose: 100.0 mg/kg/injection, schedule: Q01DX001 (ip), vehicle: carboxymethylcellulose (CMC)); 103 % of control (dose: 200.0 mg/kg/injection, schedule: Q01DX001 (ip), vehicle: carboxymethylcellulose (CMC)).

As for `Cn1c(=O)c2c(nc(OC3CCC=CO3)n2C)n(C)c1=O` (centres undefined), the T/C was 98 % of control (dose: 50.0 mg/kg/injection, schedule: Q01DX001 (ip), vehicle: other); 95 % of control (dose: 100.0 mg/kg/injection, schedule: Q01DX001 (ip), vehicle: other); 88 % of control (dose: 200.0 mg/kg/injection, schedule: Q01DX001 (ip), vehicle: other).

On to `O=C(Nc1ccc(C2=NCCN2)cc1)c1cccc(C(=O)Nc2ccc(C3=NCCN3)cc2)c1Cl`, for which the T/C is, setting by setting: (dose: 4.5 mg/kg/injection, schedule: Q01DX Z (ip), vehicle: carboxymethylcellulose (CMC)) 105 % of control; (dose: 9.0 mg/kg/injection, schedule: Q01DX Z (ip), vehicle: carboxymethylcellulose (CMC)) 117 % of control; (dose: 18.0 mg/kg/injection, schedule: Q01DX Z (ip), vehicle: carboxymethylcellulose (CMC)) 155 % of control; (dose: 25.0 mg/kg/injection, schedule: Q01DX Z (ip), vehicle: carboxymethylcellulose (CMC)) 211 % of control; (dose: 37.0 mg/kg/injection, schedule: Q01DX Z (ip), vehicle: carboxymethylcellulose (CMC)) 184 % of control; (dose: 62.0 mg/kg/injection, schedule: Q01DX Z (oral), vehicle: carboxymethylcellulose (CMC)) 109 % of control. The T/C is 118 % of control (dose: 125.0 mg/kg/injection, schedule: Q01DX Z (oral), vehicle: carboxymethylcellulose (CMC)); 118 % of control (dose: 250.0 mg/kg/injection, schedule: Q01DX Z (oral), vehicle: carboxymethylcellulose (CMC)); 98 % of control (dose: 500.0 mg/kg/injection, schedule: Q01DX Z (oral), vehicle: carboxymethylcellulose (CMC)).

Regarding `COc1cc2c(cc1OC)-c1cc3cc(OC)c(OC)cc3c(C)[n+]1CC2`, the T/C runs as follows: (dose: 12.5 mg/kg/injection, schedule: Q04DX002 (ip), vehicle: Klucel (hydroxypropylcellulose) (HPC)) 102 % of control; (dose: 25.0 mg/kg/injection, schedule: Q04DX002 (ip), vehicle: Klucel (hydroxypropylcellulose) (HPC)) 105 % of control; (dose: 50.0 mg/kg/injection, schedule: Q04DX002 (ip), vehicle: Klucel (hydroxypropylcellulose) (HPC)) 105 % of control.

In the case of `CN(CCC#N)C1=CCCC1`, the T/C (dose: 100.0 mg/kg/injection, schedule: Q04DX003 (ip), vehicle: saline sonified) was 100 % of control; the T/C (dose: 200.0 mg/kg/injection, schedule: Q04DX003 (ip), vehicle: saline sonified) is 111 % of control; the T/C (dose: 400.0 mg/kg/injection, schedule: Q04DX003 (ip), vehicle: saline sonified) was 96 % of control.

Take `Cn1nc(NC(=O)C(F)(F)F)c2nccnc21`: the T/C under setting [11] was 95 % of control; the T/C under setting [12] is 100 % of control; the T/C under setting [15] was 94 % of control; the T/C under setting [13] was 101 % of control; the T/C under setting [16] is 108 % of control.

As to `CCCSCCNC(=O)NCCSCCC`, the T/C is 107 % of control (dose: 100.0 mg/kg/injection, schedule: Q04DX002 (ip), vehicle: other); 104 % of control (dose: 200.0 mg/kg/injection, schedule: Q04DX002 (ip), vehicle: other); 100 % of control (dose: 400.0 mg/kg/injection, schedule: Q04DX002 (ip), vehicle: other).

`C=C(C)Cc1c(C)c(Cl)cc(Cl)c1O`: the T/C (dose: 50.0 mg/kg/injection, schedule: Q01DX001 (ip), vehicle: saline) was 103 % of control and the T/C under setting [14] was 103 % of control.

Regarding `COc1ccc(OCC(=O)O)c(C=O)c1`, the T/C under setting [11] is 95 % of control; the T/C under setting [12] was 115 % of control; the T/C under setting [15] was 93 % of control; the T/C under setting [13] is 96 % of control; the T/C (dose: 400.0 mg/kg/injection, schedule: Q01DX009 (ip), vehicle: saline with Tween-80) was 91 % of control; the T/C under setting [16] is 106 % of control.

Take `Oc1c(Cl)cc(Cl)c(Cl)c1Cc1c(O)c(Cl)cc(Cl)c1Cl`: the T/C runs as follows: (dose: 12.5 mg/kg/injection, schedule: Q04DX003 (ip), vehicle: Klucel (hydroxypropylcellulose) (HPC)) 109 % of control; (dose: 25.0 mg/kg/injection, schedule: Q04DX003 (ip), vehicle: Klucel (hydroxypropylcellulose) (HPC)) 100 % of control; under setting [10], 98 % of control.
